Experiments:
Assay type in all cases: functional
[1] = Antioxidant activity assessed as inhibition of hydroxyl radical at 100 ug/mL
[2] = Antioxidant activity assessed as inhibition of microsomal lipid peroxidation at 100 ug/mL
Rattus norvegicus [3] = assay: Antidyslipidemic activity in WR-1339-induced hyperlipidemic Charles Foster rat assessed as reduction in plasma cholesterol level at 100 mg/kg, po after 18 hrs; parameters: scale not given: the % may be the effect or the level left
Rattus norvegicus [4] = assay: Antidyslipidemic activity in WR-1339-induced hyperlipidemic Charles Foster rat assessed as reduction in plasma triglyceride level at 100 mg/kg, po after 18 hrs; parameters: scale not given: the % may be the effect or the level left
Rattus norvegicus [5] = assay: Antidyslipidemic activity in WR-1339-induced hyperlipidemic Charles Foster rat assessed as reduction in plasma phospholipid level at 100 mg/kg, po after 18 hrs; parameters: scale not given: the % may be the effect or the level left
[6] = Antioxidant activity assessed as inhibition of superoxide at 20 ug/mL
[7] = Antioxidant activity assessed as inhibition of superoxide at 100 ug/mL

SMILES	inhibition [1]	inhibition [2]	Activity (Rattus norvegicus [3])	Activity (Rattus norvegicus [4])	Activity (Rattus norvegicus [5])	inhibition [6]	inhibition [7]
Cc1c(C)c2c(c(C)c1O)CC[C@@](C)(CCC[C@H](C)CCC[C@H](C)CCCC(C)C)O2	48%	45%					
Cc1ccc(C)c(OCCCC(C)(C)C(=O)O)c1 [GEMFIBROZIL]			33%	34%	32%		
Cc1cc(=O)oc2c3c(ccc12)C(=O)/C(=C\NCCC1CNCCO1)C=C3C=O (stereo not given)		31%	20%	25%	21%		
CCCCN/C=C1/C=C(C=O)c2c(ccc3c(C)cc(=O)oc23)C1=O		37%					
OC[C@@H](O)[C@@H](O)[C@H](O)[C@H](O)CO	48%	45%					
Oc1ncnc2[nH]ncc12						90%	
CCCCCCCN/C=C1/C=C(C=O)c2c(ccc3c(C)cc(=O)oc23)C1=O	49%	34%	24%	22%	20%		45%
Cc1cc(=O)oc2c1ccc1c(O)c(C=O)cc(C=O)c12	52%	27%	23%	21%	25%		72%
